Patent US7709538B2 (Sagittarius Life Science Corp., priority 2004, dated 2010)
“And” between values parts separate entries of the source, which are not always exact repeats. Equal values may be shown once. “Also recorded” adds a separate entry of the source. Marks after values point to notes of the source that are not given here.

How the values were obtained:
[1] = tested on: bFGF-induced corneal angiogenesis; assay: Corneal angiogenesis, topical application of eye drops; assay type: in vivo
Experimental: FIG. 9. […] (A) Representative photographs of basic fibroblast growth factor (bFGF)-implanted corneas after topical application of control (phosphate buffered saline, PBS) eye drop (left panel) and ST104P-containing eye drop (50 μg/ml, middle panel; 100 μg/ml, right panel) for 7 days. The asterisk represents the place of hydron pellet implantation. […] Data represent mean±SEM (n=8 per group).
FIG. 10. Histological analysis of basic fibroblast growth factor (bFGF)-implanted rat cornea after ST104P eye drop treatment. After eye drop treatment for 7 days, the bFGF-implanted rat corneas were harvested and stained with hematoxylin and eosin (200×). […] Neocapillaries (arrowheads) are prominent in the corneal stroma.
(§1) All rats were handled in accordance with the Association for Research in Vision and Ophthalmology Resolution on the Use of Animals in Research. Male Sprague-Dawley rats (300-350 g, Animal Center, National Science Counsel, Taipei, Taiwan) were used in this study. All surgical procedures were performed using sterile techniques. The rats were placed under anesthesia with 3% isoflurane in an O2/room air mixture (1:1). Additional topical anesthesia (0.4% benoxinate hydrochloride, Ciba Vision Ltd., Hettlingen, Switzerland) was applied to the corneal surface. The eyes were exposed by grasping the temporal limboconjunctiva using a jeweler's forceps and the central-peripheral corneal intrastromal lamellar pocket (0.6×1.5×1 mm for depth×length×width) was dissected with a surgical blade (Paragon no. 11; Maersk Medical LTD, Sheffield, England). The pockets were extended 1.5 to 2 mm away from the limbus. The pellet was grasped by smooth forceps from the refrigerator (−20° C.) and immediately implanted into the corneal stromal pocket in each eye. Topical antibiotic ointment (0.3% gentamycin; Alcon Cusi, Spain) was applied to the corneal surface to reduce irritation and prevent infection.
Topical Application of ST104P
(§2) Biomicroscopic Examination
(§3) Examinations were made with a dissecting microscope and results were photographed on days 3, 5 and 7. Under anesthesia, the maximum vessel length and width of the neovascularization in rat eyes were measured and calibrated using a microscale (Nikon, Tokyo, Japan). The area of neovascularization of the cornea was determined from the dimensions of the triangular growth pattern of the vessels. Photographs of the corneal angiogenesis assay were obtained and digitized in a 640×480 pixel matrix, using a digital camera CoolPix 995 (Nikon, Tokyo, Japan). The operator was blinded to experimental design. Areas containing blood vessels were traced on the computer monitor and calculated with image analysis software (Scion Image 4.02; Scion, Maryland, USA) and reported in square millimeters with determinations. The biomicroscopic assessment was conducted by two independent observers.
After treatment, the rat corneas were dissected and fixed in […]. The […]-embedded tissues were sectioned in 5-μm slices, mounted on poly-L-lysine-coated slides and subjected to hematoxylin and eosin staining.
(§4) To analyze the differences between groups, Mann-Whitney U test analysis with two-tailed probability was used and a P value of less than 0.05 was considered significant. Results are presented as means±SEM (standard error of the mean). For each experiment, surgery was performed on all animals in a standardized fashion, and animals were randomized to the different treatment and control groups.

[2] = Tolerability in animals via various routes (data not shown); assay type: in vivo; conditions: oral or intravenous, intraperitoneal, and intratumor injection
[3] = tested on: neovascularization in chicken embryos (CAM); assay: Chorioallantoic membrane (CAM) assay
Experimental: The angiogenesis profiles on CAMs were recorded under dissection microscope.
Chorioallantoic Membrane (CAM) Assay
Briefly, fertilized White Leghorn chicken eggs were purchased from Taiwan Provincial Research Institute for Animal Health (Hsin-Chu, Taiwan) and incubated at 37° C. with 60% humidity. On day 3, a square window was opened in the shell, and 2 to 3 ml of albumen was removed to allow detachment of the developing CAM. The window was sealed with a glass, and the eggs were returned to the incubator. […] The CAMs were examined daily until day 10-12, when the angiogenic response peaks, and photographed in ovo with a stereomicroscope equipped with Zeiss MC63 camera system (Zeiss, Oberkochen, Germany). The experiments were carried out using 10 eggs per group.

[4] = tested on: BAEC, HUVEC, EA.hy926 cells, 3T3 cells, GH3 cells, C6 cells, HepG2 cells, SK-Hep-1 cells, MDCK cells; assay: Morphological analysis of endothelial and non-endothelial cells; assay type: cell-based; conditions: all types of cells tested; data not shown
Text: (§5) FIG. 1. […] The pictures were taken at 400× magnification. […] Each data represent mean±SD of quadruplicate experiments. Asterisks indicated statistic significance versus control (P<0.001).

BAEC [5] = assay: Tube formation assay in Matrigel; assay type: cell-based, Bovine; conditions: ST104P 20-100 μg/ml
Experimental: FIG. 3. ST104P abolished the tube formation of endothelial cells. […] Endothelial cells were applied to Matrigel-coated plate in the absence or presence of ST104P. After 8 h, the tubular structures of BAEC cells were monitored and recorded under light microscopy. The pictures were taken at 400× magnification.
Matrigel (Becton Dickinson; Bedford, Mass.) was diluted with cold serum-free medium to 10 mg/ml. Two hundred μl of the diluted solution were added to each well in 24-well plate and allowed to form a gel at 37° C. for 30 min. […] Two hundred μl of the cell suspension (3×10^4 cells) were then subsequently added to each well and incubated for 6-8 h at 37° C. in 5% CO2. Under these conditions endothelial cells form delicate networks of tubes that are detectable within 2-3 h and are fully developed after 8-12 h.

[6] = tested on: secretion of MMP-2 by endothelial cells; assay: MMPs gelatin zymography of conditioned media of endothelial cells; assay type: cell-based; conditions: endothelial cells (BAEC, EA.hy926), even at dose as low as 10 μg/ml, 24 h
Experimental: (§6) Matrix Metalloproteinases (MMPs) Zymography
(§7) Secretion of MMPs by endothelial cells was assessed by 0.1% gelatin-SDS-PAGE zymography. Briefly, endothelial cells near 80% confluence were washed twice with serum-free media and treated with various doses of vasostatin for 24-48 h. Conditioned media were collected and assayed for protein concentration by Bradford assay. Aliquots of conditioned media were subjected to separation with 10% SDS-PAGE containing 0.1% type A gelatin (Sigma; St. Louis, Mo.). After electrophoresis, gel was washed twice with 2.5% Triton X-100, incubated in buffer containing 40 mM Tris-HCl, pH […], 0.01% sodium azide at 37° C. for 12-24 h, stained with 0.25% Coomassie Blue R-250 in 50% methanol and 10% acetic acid for 1 h, and destained with 10% acetic acid, 20% methanol. The gelatinolytic regions by MMPs were visualized as white bands in blue background.

[7] = tested on: secretion of MMP-9 by endothelial cells; assay: as above; assay type: cell-based; conditions: endothelial cells (BAEC, EA.hy926), even at dose as low as 10 μg/ml, 24 h
Experimental: as §6, §7

EA.hy926 cells = assay: Tube formation assay in Matrigel; assay type: cell-based, Human; conditions: ST104P 20-100 μg/ml
different types of cells = assay: Cell proliferation assay, different types of cells; assay type: cell-based; conditions: dose-dependent, 10-500 μg/ml, 48 h
Text: as §5

BAEC [8] = conditions: incubation 6 h, bFGF 100 ng/ml
Experimental: (§8) FIG. 2. […] After trypsinization, endothelial cells were applied to top wells in Boyden chamber to initiated migration toward chemoattractant bFGF (100 ng/ml) in the bottom wells. The migrated cells on filter were stained and counted. Each point represents mean±SEM of triplicate experiments.
(§9) The compartments were separated by a polycarbonate filter (8-μm pore size; Nucleopore, Costar, Cambridge, Mass.) coated with 0.005% gelatin to allow cell adhesion. After incubation for 2-4 h in a humidified 5% CO2 atmosphere at 37° C., cells on the upper side of the filter were removed, and those that had migrated to the lower side were fixed in absolute ethanol, stained with 10% Giemsa solution (Merck, Germany), and counted as a mean±SD per filter under five different high power fields.

EA.hy926 = conditions: EA.hy926, incubation 6 h, bFGF 100 ng/ml
Experimental: as §8, §9

[9] = tested on: bFGF-induced angiogenesis in rat corneas; assay: Corneal angiogenesis, implanted hydron pellets; assay type: in vivo; conditions: for Area (mm^2) of neovascularization / Length (mm) of new vessels: day 7
[10] = tested on: bFGF-induced angiogenesis in rat corneas; assay: Corneal angiogenesis, implanted hydron pellets; assay type: in vivo; conditions: pellets with bFGF 100 ng, alone or plus ST104P 500 ng, day 7
Experimental: FIG. 8. […] The asterisk represents the place of hydron pellet implantation. (B) The neovascularization in rat corneas after implantation bFGF hydron pellets or pellets containing bFGF and ST104P. The length (panel a) and area (panel b) of neovascularized vessels in rat corneas were measured after implantation for 3-7 days. Data are means±SEM (n=8 per group). *P<0.01.
as §1
Implanting Hydron Pellets
as §2, §3, §4

Lewis lung carcinoma = assay: Treatment of Lewis lung carcinoma in mice; assay type: in vivo
Experimental: FIG. 6. […] The subcutaneous dorsa of mice were implanted with Lewis lung carcinomas. […] Each point represents mean±SEM for ten mice.
FIG. 7. […] The subcutaneous dorsa of mice were implanted with Lewis lung carcinomas. […] Each point represents mean±SEM for ten mice.
Animal study was carried out in the animal facility of Kaohsiung Veterans General Hospital in accordance with institutional guidelines. Male C57BL/6J mice (6- to 8-week-old; Animal Center of National Cheng Kung University, Taiwan) were used. Mice were acclimated and caged in groups of four or less. All mice were fed with a diet of animal chow and water ad libitum. Animals were anesthetized in a methoxyflurane chamber prior to all procedures and were observed until fully recovered. Animals were sacrificed by a lethal dose of methoxyflurane.
Treatment of Lewis Lung Carcinoma
C57BL/6J mice were implanted with Lewis lung carcinomas cells using the techniques described previously (O'Reilly et al., Cell 88, 277-285, 1997). Briefly, the LL2 Lewis lung carcinoma cells were resuspended in PBS at the concentration of 2.5×10^6 cells per ml and injected into C57B16/J mice (n=20) with 0.1 ml of the cell suspension to induce tumor. Tumors were measured with a dial-caliper and volumes were determined using the formula width^2×length×0.52. […] In addition, the survival rate of mice in different groups was recorded and analyzed by Kaplan-Mier Survival analysis.

Water solubility = assay type: physicochemical
[11] = ST104P 500 ng pellet without bFGF
[12] = ST104P 1000 ng pellet without bFGF

With “tetrameric cyclic compound of 4,5-dihydroxynaphthalene-2, 7, disulfonic acid linked by methylene bridges [ST104P]” the average vessel length ([1]; ST104P eye drop 100 μg/ml three times daily, day 7, PBS eye drop 1.36±0.4, P<0.01) was 0.39±0.15 mm, the neovascularized area ([1]; ST104P eye drop 100 μg/ml three times daily, day 7, PBS eye drop 1.42±0.28, P<0.01) was 0.28±0.19 mm^2 and the “effect on bFGF-induced cornea angiogenesis” value ([1]; ST104P eye drop 10-20 μg/ml) was “did not elicit inhibitory effect”. The “neovascularization by histological analysis” value ([1]; ST104P eye drops 50 and 100 μg/ml, 7 days, hematoxylin and eosin) was “no significant neovascularization”, the “toxicity to the cornea / other eye cells by histological analysis” value ([1]; ST104P eye drops, 7 days) was “appears normal histologically without apparent adverse effects; also recorded: without overt cytotoxicity” and the tolerability in animals [2] was “well tolerated”. For the same substance, the “inhibition of angiogenesis in CAM” value ([3]; 50 μg per CAM, 8-day old chick embryos) was 50%, the “mortality of chick embryos” value ([3]; 200 μg per CAM, 9 out of 10 died) was 90% and the “cytotoxicity by morphological analysis” value [4] was “not very toxic”. The “vessel-like (tube) structure in Matrigel” value (BAEC [5]) was “effectively abolished”, the “secretion of MMP-2” value [6] was “potently inhibited” and the “secretion of MMP-9” value [7] was “potently inhibited”. For the same substance, the “vessel-like (tube) structure in Matrigel” value (EA.hy926 cells) was “effectively abolished”, the “proliferation in different types of cells” value (different types of cells) was “moderately inhibited the proliferation” and the “IC50, migration toward chemoattractant bFGF” value (BAEC [8]) was 100 µg/mL. For the same substance, the “IC50, migration toward chemoattractant bFGF” value (EA.hy926) was 100 µg/mL, the “Area (mm^2) of neovascularization” value [9, 11] was 0 mm^2 and the “Length (mm) of new vessels” value [9, 11] was 0 mm. The “Area (mm^2) of neovascularization” value [9, 12] was 0 mm^2, the “Length (mm) of new vessels” value [9, 12] was 0 mm and the “induction of neovascularization by pellets without bFGF” value ([9]; ST104P pellets alone in rat corneas) was “did not induce neovascularization”. For the same substance, the “Area (mm^2) of neovascularization” value ([10]; listed as bFGF + ST104P) was 0.12 ± 0.11* mm^2, the “Length (mm) of new vessels” value ([10]; listed as bFGF + ST104P) was 0.17 ± 0.06* mm and the “Area (mm^2) of neovascularization” value ([10]; listed as bFGF plus ST104P) was 0.12±0.11 mm^2. For the same substance, the “Length (mm) of new vessels” value ([10]; listed as bFGF plus ST104P) was 0.17±0.06 mm, the “weight loss or adverse effects in treated mice” value (Lewis lung carcinoma; ST104P 100 μg injection) was “no evident weight loss or adverse effects” and the “decrease of tumor size versus saline-treated group” value (Lewis lung carcinoma; ST104P 100 μg injection, four times) was ~40%. The average tumor size (Lewis lung carcinoma; ST104P 100 μg injection, four times, saline group 4876±670, P<0.05) was 2620±320 mm^3, the “survival of tumor-bearing mice” value (Lewis lung carcinoma; ST104P 100 μg, versus vehicle, Kaplan-Meier) was “significantly enhanced the survival rates; also recorded: survived significantly longer” and the water solubility (Water solubility) was “excellent water solubility”.

For “bFGF: Recombinant basic fibroblast growth factor, used as chemoattractant and as inducer of corneal angiogenesis in hydron pellets [reference compound]”, the “Area (mm^2) of neovascularization” value [10] was 1.42±0.28 mm^2 and the “Length (mm) of new vessels” value [10] was 1.36±0.4 mm and 1.36 ± 0.40 mm.
